# Reference: paper PMC11122761, “Synthetic ShK-like Peptide from the Jellyfish Nemopilema nomurai Has Human Voltage-Gated Potassium-Channel-Blocking Activity” (Marine Drugs, 2024)
# “Also recorded” adds a separate entry of the source. Where no end group is shown, it is not given here.
# How the values were obtained:
# hKv1.3 = experiment: Whole-cell patch-clamp current recording, hKv1.3; type: cell-based, human; conditions: for hKv1.3 IV curve, p vs. 0 nM: IV curves −130 to 50 mV (Figure 3), two-way ANOVA; for hKv1.3 IV curve, p vs. 0 nM / reduction of hKv1.3 current amplitude at 50 mV, p vs. 0 nM: Dunnett's post hoc; for reduction of hKv1.3 current amplitude at 50 mV, p vs. 0 nM: one-way ANOVA; for current of hKv1.3 (current amplitude), effect of treatment / inhibition of the current amplitudes of hKv1.3 by NnK-1 analogs: 0.01, 1, 100, or 500 nM; for current of hKv1.3 (current amplitude), effect of treatment: HEK293 cells expressing hKv1.3, bath-applied for 2 min, whole-cell, holding potential –70 mV; for hKv1.3 IV curves, two-way ANOVA group effect p: group effect, 0, 0.01, 1, 100, or 500 nM, Figure 3 IV curves; for hKv1.3 current amplitude at 50 mV, one-way ANOVA p: overall, 0, 0.01, 1, 100, or 500 nM; for inhibition of the current amplitudes of hKv1.3 by NnK-1 analogs: Figure 6
# Experimental: (§1) The amplification was performed in the Veriti™ 96-Well Fast Thermal Cycler (Applied Biosystems, Waltham, MA, USA) with a thermal cycling program consisting of predenaturation for 3 min at 95 °C, followed by 30 cycles of denaturation for 30 s at 95 °C, annealing for 30 s at 58 °C, and extension for 30 s at 72 °C, with a final extension for 3 min at 72 °C. A Human cDNA Clone Set (OriGene Technologies GmbH, Herford, Germany) was used as the template. A MCS (multi-cloning site) digested from the pAAV-MCS vector (Cell Biolabs, San Diego, CA, USA) was ligated into the pIRES2-EGFP vector (Clontech Laboratories, Mountain View, CA, USA) to form pAAV–CMV–IRES2–EGFP. The PCR products were ligated into the pAAV–CMV–IRES2–EGFP vector at the NheI and SalI sites to construct pAAV–CMV–hKv–IRES2–EGFP.
# (§2) The HEK293 cells were transfected with pAAV–CMV–hKv–IRES2–EGFP (2 μg) using Effectene Transfection Reagent (Qiagen, Hilden, Germany) for 12–18 h. The transfectants (1 × 10^5/mL) were seeded onto 12 mm coverslips coated with 0.01 mg/mL poly-D-lysine for 2–3 h.
# The HEK293 cells expressing AAV–CMV–hKv–IRES2–EGFP were reseeded onto coverslips. The HEK293 transfectants were monitored for their green fluorescence and used as patch cells. Patch pipettes were filled with an internal solution (140 mM potassium gluconate, 10 mM HEPES, 0.2 mM ATP, and 0.06 mM GTP). An external solution [130 mM NaCl, 10 mM HEPES, 3 mM KCl, 1.5 mM D-glucose, 10 mM sucrose, […], 1.5 mM MgCl2·6H2O, osmolarity 320 mmol/kg (pH 7.2)] was used as the basic buffer. Psora4, ShK, or NnK-1 (0, 0.01, 1, 100, or 500 nM) was bath-applied for 2 min to block the currents recorded from the HEK293 cells expressing AAV–CMV–hKv–IRES2–EGFP with voltages ranging from −130 to 50 mV in the increments of 20 mV and 0.6 s. Whole-cell patch recordings from […] under voltage-clamp conditions (holding potential of –70 mV) were made with the Multiclamp 700 B microelectrode amplifier (Automate Scientific Inc., Berkeley, CA, USA) digitized with a Digidata 1322 A data acquisition system (Molecular Devices Limited, San Jose, CA, USA). In this study, all electrophysiological data from the cultured cells were obtained at a temperature of 23–25 °C and maintained with the CL-100 Temperature Controller (Warner Instruments LLC, Hamden, CT, USA).
# hKv1.1 = experiment: Whole-cell patch-clamp current recording, hKv1.1; type: cell-based, human; conditions: HEK293, bath-applied 2 min
# Experimental: as §1
# (§3) The HEK293 cells were transfected with pAAV–CMV–hKv–IRES2–EGFP (2 μg) using Effectene Transfection Reagent (Qiagen, Hilden, Germany) for 12–18 h. […]
# (§4) The HEK293 cells expressing AAV–CMV–hKv–IRES2–EGFP were reseeded onto coverslips. The HEK293 transfectants were monitored for their green fluorescence and used as patch cells. […] Psora4, ShK, or NnK-1 (0, 0.01, 1, 100, or 500 nM) was bath-applied for 2 min to block the currents recorded from the HEK293 cells expressing AAV–CMV–hKv–IRES2–EGFP with voltages ranging from −130 to 50 mV in the increments of 20 mV and 0.6 s. […]
# [1] = system: hKv1.3-transfected HEK293 cells; experiment: Cell viability assay (CCK-8), hKv1.3-transfected HEK293 cells; type: cell-based; conditions: 1 h treatment, 0.01, 1, 100, and 500 nM; CCK-8, absorbance 450 nm
# Experimental: as §2
# (§5) The cell viability of the HEK293 cells was assessed with a Cell Counting Kit-8 (CCK-8, DJDB4000X, Dojindo laboratory, Kumanoto, Japan). Both the HEK293 cells and HEK293 cells expressing AAV–CMV–hKv–IRES2–EGFP were seeded onto a 96-well plate (1 × 10^4 cells/well). After 24 h of incubation, ShK, NnK-1, NnK-1 mu, and NnK-1 w/o d (0, 0.01, 1, 100, or 500 nM) were used to treat the cells in each well for 1 h. After that, a dye solution was used to treat the cells for 2 h, and the absorbance was measured at 450 nm using a microplate reader (GloMax explorer multimode, Promega, Madison, WI, USA).
# hKv1.4 = experiment: Whole-cell patch-clamp current recording, hKv1.4; type: cell-based, human
# Experimental: as §1, §2
# (§6) The HEK293 cells expressing AAV–CMV–hKv–IRES2–EGFP were reseeded onto coverslips. The HEK293 transfectants were monitored for their green fluorescence and used as patch cells. Patch pipettes were filled with an internal solution (140 mM potassium gluconate, 10 mM HEPES, 0.2 mM ATP, and 0.06 mM GTP). An external solution [130 mM NaCl, 10 mM HEPES, 3 mM KCl, 1.5 mM D-glucose, 10 mM sucrose, […], 1.5 mM MgCl2·6H2O, osmolarity 320 mmol/kg (pH 7.2)] was used as the basic buffer. Psora4, ShK, or NnK-1 (0, 0.01, 1, 100, or 500 nM) was bath-applied for 2 min to block the currents recorded from the HEK293 cells expressing AAV–CMV–hKv–IRES2–EGFP with voltages ranging from −130 to 50 mV in the increments of 20 mV and 0.6 s. […]
# [2] = system: untransfected HEK293 cells; experiment: Cell viability assay (CCK-8), untransfected HEK293 cells; type: cell-based; conditions: 1 h treatment, 0.01, 1, 100, and 500 nM; CCK-8, absorbance 450 nm
# Experimental: as §5
# [3] = Maintenance of disulfide bonds of synthetic NnK-1 in solution; type: physicochemical; conditions: dissolved in a solution; inferred from comparison with NnK-1 w/o d on hKv1.3
# Text: Another peptide, NnK-1 w/o d, which had the same amino acid residues but without three pairs of disulfide bonds, was also synthesized to test whether the disulfide bonds were still intact in the synthetic NnK-1 after being dissolved in a solution.
# hKv1.5 = experiment: Whole-cell patch-clamp current recording, hKv1.5; type: cell-based, human
# Experimental: as §1, §2, §6
# hKv3.1 = experiment: Whole-cell patch-clamp current recording, hKv3.1; type: cell-based, human; conditions: 100 nM NnK-1; Figure 4E; HEK293, bath-applied 2 min, 23–25 °C
# Experimental: as §1, §3, §4
# hKv11.1 = experiment: Whole-cell patch-clamp current recording, hKv11.1; type: cell-based, human; conditions: 100 nM NnK-1; Figure 4F; HEK293, bath-applied 2 min, 23–25 °C
# Experimental: as §1, §3, §4
# [4] = 0.01 nM, HEK293, bath-applied 2 min, pH 7.2, 23–25 °C
# [5] = 1 nM, HEK293, bath-applied 2 min, pH 7.2, 23–25 °C
# [6] = 1 nM, bar graph at 50 mV (Figure 3), HEK293, bath-applied 2 min, pH 7.2, 23–25 °C
# [7] = 100 nM, HEK293, bath-applied 2 min, pH 7.2, 23–25 °C
# [8] = 100 nM, bar graph at 50 mV (Figure 3), HEK293, bath-applied 2 min, pH 7.2, 23–25 °C
# [9] = 500 nM, HEK293, bath-applied 2 min, pH 7.2, 23–25 °C
# [10] = 500 nM, bar graph at 50 mV (Figure 3), HEK293, bath-applied 2 min, pH 7.2, 23–25 °C
# [11] = 100 nM, HEK293, bath-applied 2 min, 23–25 °C (Figure 4)
# [12] = electrophysiological assay, summary statement
# [13] = HEK293, bath-applied 2 min, 23–25 °C
Molecule,"hKv1.3 IV curve, p vs. 0 nM (hKv1.3; [4])","hKv1.3 IV curve, p vs. 0 nM (hKv1.3; [5])","reduction of hKv1.3 current amplitude at 50 mV, p vs. 0 nM (hKv1.3; [6])","hKv1.3 IV curve, p vs. 0 nM (hKv1.3; [7])","reduction of hKv1.3 current amplitude at 50 mV, p vs. 0 nM (hKv1.3; [8])","hKv1.3 IV curve, p vs. 0 nM (hKv1.3; [9])","reduction of hKv1.3 current amplitude at 50 mV, p vs. 0 nM (hKv1.3; [10])","current of hKv1.3 (current amplitude), effect of treatment (hKv1.3; pH 7.2, 23–25 °C)","hKv1.3 IV curves, two-way ANOVA group effect p (hKv1.3)","hKv1.3 current amplitude at 50 mV, one-way ANOVA p (hKv1.3; Figure 3 bar graphs)","hKv1.3 current amplitude at 50 mV, one-way ANOVA p (hKv1.3; Figure 6 bar graphs)",inhibition of the current amplitudes of hKv1.3 by NnK-1 analogs (hKv1.3; [13]),other results
"O=c1ccc2c(OCCCCc3ccccc3)c3ccoc3cc2o1 [Psora4, reference compound]",< 0.05,< 0.0001,< 0.01,< 0.0001,< 0.001,< 0.0001,< 0.0001,significantly reduced,< 0.0001,< 0.0001,,,
"CKDHHTYGVYCKDWKSSGECKKNPKGMRHFCRKTCGFC (disulfide (positions not given here)) [NnK-1, fifth ShK-like peptide of the Nemopilema nomurai NnK-1 precursor, chemically synthesized]",< 0.01,< 0.0001,< 0.0001,< 0.0001,< 0.0001,< 0.0001,< 0.0001,significantly reduced,< 0.0001,< 0.0001,< 0.05,,"reduction of hKv1.3 current amplitude at 50 mV, p vs. 0 nM (hKv1.3; 0.01 nM, bar graph at 50 mV (Figure 3), HEK293, bath-applied 2 min, pH 7.2, 23–25 °C): < 0.05; hKv1.3 IV curve, two-way ANOVA group effect p (hKv1.3; 100 nM NnK-1, Figure 4B, HEK293, bath-applied 2 min, 23–25 °C): < 0.05; reduction of hKv1.3 current amplitude at 50 mV, p vs. 0 nM (hKv1.3; 100 nM, Figure 6B, HEK293, bath-applied 2 min): < 0.05; inhibition of the current amplitude of hKv1.3 (hKv1.3; [11]): significantly inhibited; reduction of hKv1.3 current amplitude at 50 mV, p vs. 0 nM (hKv1.3; 500 nM, Figure 6B, HEK293, bath-applied 2 min): < 0.05; channel block, hKv1.3 (hKv1.3; [12]): effective blocker; also recorded: Kv1.3-blocking activity; hKv1.1 IV curve, two-way ANOVA group effect p (hKv1.1; 100 nM NnK-1, Figure 4A, 23–25 °C): 0.52; inhibition of the current amplitude of hKv1.1 (hKv1.1; 100 nM, 23–25 °C (Figure 4)): not that of hKv1.1, hKv3.1, and hKv.11.1; cell viability, hKv1.3-transfected HEK293 [1]: no difference; hKv1.4 IV curve, two-way ANOVA group effect p (hKv1.4; 100 nM NnK-1, Figure 4C, HEK293, bath-applied 2 min, 23–25 °C): < 0.01; inhibition of the current amplitude of hKv1.4 (hKv1.4; [11]): significantly inhibited; channel block, hKv1.4 (hKv1.4; [12]): effective blocker; cell viability, untransfected HEK293 [2]: no difference; disulfide bonds in solution [3]: maintained even when dissolved in a solution; hKv1.5 IV curve, two-way ANOVA group effect p (hKv1.5; 100 nM NnK-1, Figure 4D, HEK293, bath-applied 2 min, 23–25 °C): < 0.001; inhibition of the current amplitude of hKv1.5 (hKv1.5; [11]): significantly inhibited; channel block, hKv1.5 (hKv1.5; [12]): effective blocker; hKv3.1 IV curve, two-way ANOVA group effect p (hKv3.1): 0.46; hKv11.1 IV curve, two-way ANOVA group effect p (hKv11.1): 0.39"
"CKDHHTYGVYCKDWKSSGECKKNPKGMRHFCRKTCGFC [NnK-1 w/o d, same amino acid residues as NnK-1 but without three pairs of disulfide bonds]",,,,,,,,,,,0.28,neither NnK-1 mu nor NnK-1 w/o d inhibited the current amplitudes of hKv1.3,
"CKEHHTYGVYCKDWKSSGECKKNPRGMRHFCRKMCGFC (disulfide (positions not given here)) [NnK-1 mu, NnK-1 with three amino acids substituted with 3Glu, 25Arg, and 34Met]",,,,,,,,,,,0.89,neither NnK-1 mu nor NnK-1 w/o d inhibited the current amplitudes of hKv1.3,
